Source: US4096112A, “2-Phenyl-indole derivative stabilizers for PVC resins” (Labaz, priority 1976, dated 1978)

Columns and labels:
mice [1] = experiment: Acute toxicity (LD50), oral route, mice; format: in vivo; details: LD50 test
Procedure: (§1) The acute toxicity (LD50) of the stabilizers listed below was carried out, by determining the dose of substance which provoked the death of 50% of the treated animals.
(§2) A gummy suspension of the substance under study was administered by oral route to groups of at least ten mice and the following results were observed: […]

[2] = Sublimation of the stabilizers; format: physicochemical; details: 120° C, 15 Torr, 150 minutes; for Percentage of sublimated substance: cold wall 13° C, 150 mg
Description: The tendency to sublimate of 2-(3'-methoxy-4'-hydroxy-phenyl)-indole (Stabilizer 2) was compared to that of 2-phenyl-indole.
A sample of the substance to be tested was introduced into a test tube and heated under reduced pressure. The fraction of sublimated substance was recovered on a mobile cold wall.
After a certain period of time, the sublimated substance was weighed and the result expressed as a percentage of the weight of the starting material.
The results obtained can only be of relative value enabling a comparison to be made between two products tested under the same conditions.
Operating conditions (chosen at random)

[3] = Thermostability of the stabilizers: differential thermoanalysis; format: physicochemical; details: 2° C/minute, 2 mg
Procedure: (§3) The thermostability of Stabilizer 2 and that of 2-phenyl-indole were studied by differential thermoanalysis and by thermogravimetric analysis.
Differential thermoanalysis diagrams were drawn up by studying 2 mg samples of material placed in a non-airtight container, the rate of temperature increase being 2° C/minute and sensitivity 4 mcal/sec.
The diagrams were made out for 2-phenyl-indole (i) and Compound 2 (ii) and enabled the following conclusions to be drawn: […]

[4] = Thermostability of the stabilizers: thermogravimetric analysis; format: physicochemical
Procedure: as §3
This analysis necessitated two series of trials carried out under air and under inert gas (argon) in order to eliminate any possible effect of oxygen. The results obtained were identical.
The temperature increase rate was 80° /hour.
Thermograms were drawn up under air for both 2-phenyl-indole (i) and for Stabilizer 2 (ii) and enabled the following conclusions to be drawn: […]

[5] = Acute toxicity (LD50), oral route, mice; format: in vivo; details: mouse, in vivo, gummy suspension
Procedure: as §1, §2

[6] = Static thermostability of the stabilized resin, GARDNER Scale comparator; details: 210° C
Procedure: (§4) These studies were performed with five different formulae of vinyl resins (hereinafter referred to as Compounds).
(§5) The different Compounds were mixed and calendered in a mixer of which the cylinders were heated to 160° C. The rigid sheets so obtained were then heated in an oven to a temperature between 180° C and 215° C, until incipient carbonization.
(§6) A stove with rotating drums, ventilated and equipped with a thermostat was used for this operation. In the trials described hereunder, the behaviour of the sheets containing one of the stabilizers to be tested was compared to that of sheets of the same formulae but containing 2-phenylindole as stabilizer.
(1) The coloration of the sheets, of which samples were removed from the stove at fixed intervals, was compared to a standard scale of coloration, known as the GARDNER Scale and expressed in terms of the reference figures of the GARDNER Scale.
Comparisons were made with a GARDNER Scale comparator which contains 18 filters of coloured glass and which offers the possibility of observing by transparency and in a limited field of view both the sheet and the reference filters.

[7] = Static thermostability of the stabilized resin, simplified method (GARDNER sub-scale in polyvinyl chloride sheets)
Procedure: as §4, §5, §6
(2) It is also possible to use a simplified method which is more rapid and with which valid results are also obtained: A reference scale is drawn up with sheets of thermally treated polyvinyl chloride, of which the colorations have been definitely determined in GARDNER degrees as above.
A GARDNER sub-scale is thus obtained in polyvinyl chloride sheets which can be directly compared to the sheets to be tested without using the comparator.

[8] = format: physicochemical; details: water; for Extractibility compared with 2-phenyl-indole: aqueous ethanol and heptane
Procedure: The stabilizers according to the invention may be used to stabilize polymers which are intended for the manufacture of packaging and containers for food and drink and it was therefore necessary, in spite of their low toxicity, to determine their extractibility by solvents simulating food and drink. This study was carried out in accordance with the requirements of the Food and Drug Administration (U.S.A). The extractions were performed in semi-rigid bottles, prepared with Compounds Nos. 609 and 676, and with the following solvents: water, an aqueous solution of acetic acid (3%), ethanol-water 50/50, heptane. The ratio of the volume of solvent to the surface of plastic material exposed to extraction was about 1 to 100 ml of solvent, taking into account the geometric characteristics of the bottles. Temperature: 49° C Heating: A thermostated oven for the non-inflammable solvents (water and acetic acid) A thermostated water-bath for the inflammable solvents (alcohol and heptane) Duration of extraction: This is indicated under each result. They are, in each case, intentionally longer than those which would have given stable maximum values. The quantity of stabilizer extracted was determined by colorimetric assay using p-dimethylaminobenzaldehyde, in accordance with the method described in Analytical Chemistry 36, 425-26 (1964). A blank trial was carried out with a Compound of the same formula as Compounds Nos. 609 and 676, but without any stabilizer. A purely negative result was obtained. The amounts of stabilizer assayed are expressed in μg per liter of extraction solvent or, which is the same per 1000 cm^2 of surface submitted to extraction.

mice [9] = experiment: Maximal dose which does not provoke any death (LD0), oral route, mice; format: in vivo; details: for Toxic symptoms: LD0 test
Procedure: as §2

Question: Which Toxic symptoms (mice [1]) does the source give for `c1ccc(-c2cc3ccccc3[nH]2)cc1` [2-phenyl-indole] here?
Answer: The Toxic symptoms was “none”.

Question: And the “Percentage of sublimated substance” value [2]?
Answer: Its value is 26.9%.

Question: And the Loss of water [3]?
Answer: The Loss of water was “no loss of water at 100 °C”.

Question: And the Residue / decomposition ([4]; under air, 210° C)?
Answer: The Residue / decomposition was “a yellowish residue was, in fact, obtained at 210 °C which constitutes proof of decomposition”.

Question: Which LD50 [5] does the source give for `COc1cc(-c2cc3ccccc3[nH]2)ccc1O` [Stabilizer 2, 2-(3'-methoxy-4'-hydroxy-phenyl)-indole] here?
Answer: Its LD50 is over 2000 mg/kg.

Question: And the Toxic symptoms (mice [1])?
Answer: The Toxic symptoms was “none”.

Question: What about the “Static thermostability compared with 2-phenyl-indole” value ([6]; Compound A) of the same compound?
Answer: Its value is “superior to 2-phenylindole”.

Question: And the “Static thermostability compared with 2-phenyl-indole” value ([6]; Compound B)?
Answer: The value was “superiority of Stabilizer 2 over 2-phenyl-indole is evident after 21 minutes”.

Question: What about the “Static thermostability compared with 2-phenyl-indole” value ([7]; Compound C, 210° C) of the same compound?
Answer: The value was “superior as a stabilizer to 2-phenyl-indole”.

Question: What about the “Static thermostability compared with 2-phenyl-indole” value ([7]; Compound D, 185° C, 0, 10 and 20 minutes) of the same compound?
Answer: Its value is “markedly superior to 2-phenyl-indole at 0, 10 and 20 minutes”.

Question: And the “Sublimation compared with 2-phenyl-indole (ratio)” value [2]?
Answer: Its value is “twenty times less than that of 2-phenyl-indole”.

Question: What about the “Percentage of sublimated substance” value [2] of the same compound?
Answer: Its value is 1.2%.

Question: And the Loss of water [3]?
Answer: Its Loss of water is “no loss of water”.

Question: What about the “Thermostability compared with 2-phenyl-indole” value ([4]; thermogravimetric analysis and differential thermoanalysis) of the same compound?
Answer: The value was “greater thermostability than 2-phenyl-indole”.

Question: What about the “Extractibility, times less than 2-phenyl-indole” value [8] of the same compound?
Answer: The value was “at least 10 times less”.

Question: What about the “Extractibility compared with 2-phenyl-indole” value [8] of the same compound?
Answer: The value was “markedly less extractible than 2-phenyl-indole”.

Question: For `COc1cc(OC)cc(-c2cc3ccccc3[nH]2)c1` [Stabilizer 3, 2-(3',5'-dimethyoxy-phenyl)-indole], which LD50 [5] is on record?
Answer: The LD50 was over 2000 mg/kg.

Question: And the Toxic symptoms (mice [1])?
Answer: The Toxic symptoms was “none”.

Question: And the “Static thermostability compared with 2-phenyl-indole” value ([7]; Compound A, 210° C)?
Answer: The value was “markedly superior to 2-phenyl-indole”.

Question: Which “Static thermostability compared with 2-phenyl-indole” value ([7]; Compound A, 210° C) does the source give for `COc1ccc(-c2cc3ccccc3[nH]2)cc1O` [Stabilizer 13, 2-(3'-hydroxy-4'-methoxy-phenyl)-indole] here?
Answer: The value was “clearly superior to 2-phenyl-indole”.

Question: What does the source list for `CCCCCCCCCCCCc1cc(-c2cc3ccccc3[nH]2)ccc1OC` [Stabilizer 14, 2-(3'-dodecyl-4'-methoxy-phenyl)-indole]?
Answer: LD50 [5]: > 3000 mg/kg; Toxic symptoms (mice [1]): none; Extractibility compared with 2-phenyl-indole [8]: markedly less extractible than 2-phenyl-indole

Question: For `COc1ccc(-c2cc3ccccc3[nH]2)cc1C(C)C` [Stabilizer 15, 2-(3'-isopropyl-4'-methoxy-phenyl)-indole], which LD50 [5] is on record?
Answer: Its LD50 is over 3000 mg/kg.

Question: And the Toxic symptoms (mice [1])?
Answer: Its Toxic symptoms is “none”.

Question: With `COc1c(C)cc(-c2cc3ccccc3[nH]2)cc1C` [Stabilizer 17, 2-(3',5'-dimethyl-4'-methoxy-phenyl)-indole] as the compound, how does the “LD0 (maximal dose which does not provoke any death)” value (mice [9]) read?
Answer: Its value is over 3000 mg/kg.

Question: And the Toxic symptoms (mice [9])?
Answer: The Toxic symptoms was “none”.

Question: Which “Extractibility compared with 2-phenyl-indole” value [8] does the source give for `CCCCCCCCCCCCc1cc(-c2cc3ccccc3[nH]2)ccc1O` [Stabilizer 19, 2-(3'-dodecyl-4'-hydroxy-phenyl)-indole] here?
Answer: Its value is “markedly less extractible than 2-phenyl-indole”.

Question: Which “LD0 (maximal dose which does not provoke any death)” value (mice [9]) does the source give for `CCOc1ccc(-c2cc3ccccc3[nH]2)cc1OC` [Stabilizer 23, 2-(3'-methoxy-4'-ethoxy-phenyl)-indole] here?
Answer: The value was over 500 mg/kg.

Question: And the Toxic symptoms (mice [9])?
Answer: Its Toxic symptoms is “none”.

Question: With `CCCCCCCCCCCCOc1ccc(-c2cc3ccccc3[nH]2)cc1OC` [Stabilizer 24, 2-(3'-methoxy-4'-dodecyloxy-phenyl)-indole] as the compound, how does the “Extractibility compared with 2-phenyl-indole” value [8] read?
Answer: Its value is “markedly less extractible than 2-phenyl-indole”.

Question: Which results are given for `CCCCOc1ccc(-c2cc3ccccc3[nH]2)cc1OC` [Stabilizer 25, 2-(3'-methoxy-4'-butyloxy-phenyl)-indole]?
Answer: LD0 (maximal dose which does not provoke any death) (mice [9]): > 3000 mg/kg; Toxic symptoms (mice [9]): none

Question: Which results are given for `COc1cc(-c2cc3ccccc3[nH]2)ccc1OC(C)C` [Stabilizer 27, 2-(3'-methoxy-4'-isopropyloxy-phenyl)-indole]?
Answer: LD0 (maximal dose which does not provoke any death) (mice [9]): > 3000 mg/kg; Toxic symptoms (mice [9]): none

Question: With `COc1ccc(-c2cc3ccccc3[nH]2)cc1OCc1ccccc1` [Stabilizer 29, 2-(3'-benzyloxy-4'-methoxy-phenyl)indole] as the compound, how does the “LD0 (maximal dose which does not provoke any death)” value (mice [9]) read?
Answer: The value was over 500 mg/kg.

Question: And the Toxic symptoms (mice [9])?
Answer: The Toxic symptoms was “none”.

Question: With `CCCCCCCCCCCCOc1ccc(-c2cc3ccccc3[nH]2)cc1C` [Stabilizer 30, 2-(3'-methyl-4'-dodecyloxy-phenyl)-indole] as the compound, how does the “Extractibility compared with 2-phenyl-indole” value [8] read?
Answer: Its value is “markedly less extractible than 2-phenyl-indole”.

Question: For `COc1cc(-c2cc3ccccc3[nH]2)ccc1OCc1ccccc1` [Stabilizer 31, 2-(3'-methoxy-4'-benzyloxy-phenyl)-indole], which “LD0 (maximal dose which does not provoke any death)” value (mice [9]) is on record?
Answer: The value was over 500 mg/kg.

Question: What about the Toxic symptoms (mice [9]) of the same compound?
Answer: The Toxic symptoms was “none”.

Question: For `c1ccc2[nH]c(-c3ccc4c(c3)OCO4)cc2c1` [Stabilizer 33, 2-(3',4'-methylenedioxy-phenyl)-indole], which “LD0 (maximal dose which does not provoke any death)” value (mice [9]) is on record?
Answer: The value was over 3000 mg/kg.

Question: And the Toxic symptoms (mice [9])?
Answer: Its Toxic symptoms is “none”.

Question: With `c1ccc2[nH]c(-c3ccc4c(c3)OCCO4)cc2c1` [Stabilizer 34, 2-(3',4'-ethylenedioxy-phenyl)-indole] as the compound, how does the “LD0 (maximal dose which does not provoke any death)” value (mice [9]) read?
Answer: The value was over 3000 mg/kg.

Question: And the Toxic symptoms (mice [9])?
Answer: Its Toxic symptoms is “none”.
